According to PubChem BioAssay AID1845203 (Molecular Pharmacology Branch, DTP, NCI, 2023):
pIC50: −log10 of the molar value.

System: G-401 tumor spheroids, viability % test/control
Test: Anticancer human tumor G-401 cell line growth inhibition;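 also: spheroids exposed to compound for 7 days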;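 as to viability, T/C: 100% = DMSO vehicle-treated spheroids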
Details: spheroids with HUVEC and MSC; for pIC50: curve of first compound; for viability, T/C: stronger effect = lower value
How it was run: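 Complex tumor spheroids combined malignant cells with endothelial cells and mesenchymal stem cells. DNA-damaging drugs and DNA repair inhibitors were tested alone and in combination, at half-log dilutions down from clinical Cmax (top 10 microM if Cmax unknown), 0.25% DMSO final.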

`COc1cc(C)[nH]c(=O)c1CN1CCc2c(Cl)cc(C(OC)C3COC3)c(Cl)c2C1=O` (stereo not given) + COc1cc2c(cc1O)CCNC21CSC2c3c(OC(C)=O)c(C)c4c(c3C(COC1=O)N1C(O)C3Cc5cc(C)c(OC)c(O)c5C(C21)N3C)OCO4 was tested, and the pIC50 (second compound 30 pM) was 6.97, the pIC50 (second compound 94.9 pM) was 7.06 and the pIC50 (second compound 0.0003 µM) was over 7.50. For the same molecule, the pIC50 (second compound 0.000949 µM) was over 7.50, the pIC50 (second compound 0.003 µM) was over 7.50 and the viability, T/C (second compound 30 pM, first compound 0.0316 µM) was 83.1%. For the same molecule, the viability, T/C (second compound 30 pM, first compound 0.1 µM) was 50.9%, the viability, T/C (second compound 30 pM, first compound 0.316 µM) was 33.9% and the viability, T/C (second compound 30 pM, first compound 1 µM) was 28.1%. It also gave a viability, T/C (second compound 30 pM, first compound 3.16 µM) of 26.9%, a viability, T/C (second compound 30 pM, first compound 10 µM) of 26.1% and a viability, T/C (second compound 94.9 pM, first compound 0.0316 µM) of 74.1%. For the same molecule, the viability, T/C (second compound 94.9 pM, first compound 0.1 µM) was 44.6%, the viability, T/C (second compound 94.9 pM, first compound 0.316 µM) was 36.1% and the viability, T/C (second compound 94.9 pM, first compound 1 µM) was 27.3%. It also gave a viability, T/C (second compound 94.9 pM, first compound 3.16 µM) of 22.7%, a viability, T/C (second compound 94.9 pM, first compound 10 µM) of 22.8% and a viability, T/C (second compound 0.0003 µM, first compound 0.0316 µM) of 33.1%. It also gave a viability, T/C (second compound 0.0003 µM, first compound 0.1 µM) of 30.2%, a viability, T/C (second compound 0.0003 µM, first compound 0.316 µM) of 23% and a viability, T/C (second compound 0.0003 µM, first compound 1 µM) of 20.4%. It also gave a viability, T/C (second compound 0.0003 µM, first compound 3.16 µM) of 18.4%, a viability, T/C (second compound 0.0003 µM, first compound 10 µM) of 18.1% and a viability, T/C (second compound 0.000949 µM, first compound 0.0316 µM) of 4.72%. The viability, T/C (second compound 0.000949 µM, first compound 0.1 µM) was 5.11%, the viability, T/C (second compound 0.000949 µM, first compound 0.316 µM) was 3.78% and the viability, T/C (second compound 0.000949 µM, first compound 1 µM) was 4%. For the same molecule, the viability, T/C (second compound 0.000949 µM, first compound 3.16 µM) was 5.07%, the viability, T/C (second compound 0.000949 µM, first compound 10 µM) was 3.13% and the viability, T/C (second compound 0.003 µM, first compound 0.0316 µM) was 0.12%. For the same molecule, the viability, T/C (second compound 0.003 µM, first compound 0.1 µM) was 0.12%, the viability, T/C (second compound 0.003 µM, first compound 0.316 µM) was 0.11% and the viability, T/C (second compound 0.003 µM, first compound 1 µM) was 0.11%. It also gave a viability, T/C (second compound 0.003 µM, first compound 3.16 µM) of 0.11% and a viability, T/C (second compound 0.003 µM, first compound 10 µM) of 0.18%.
